This is an account of results in patent US8178708B2, “Lipid derivatives” (Pronova Biopharma Norge AS, priority 2006, dated 2012).

Assay [1] has as its target T1, ligand binding domain of human PPARα (Homo sapiens, UniProt Q07869).
T1 sequence (Q07869 239-466 limits assumed): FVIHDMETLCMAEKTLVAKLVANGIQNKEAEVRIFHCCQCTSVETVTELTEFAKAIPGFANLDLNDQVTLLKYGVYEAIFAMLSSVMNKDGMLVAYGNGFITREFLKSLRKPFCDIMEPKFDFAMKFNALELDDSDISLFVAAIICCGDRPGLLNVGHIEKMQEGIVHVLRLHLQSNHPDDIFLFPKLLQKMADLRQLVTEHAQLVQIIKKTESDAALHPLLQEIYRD
Kind of assay: GAL4-hPPARα LBD luciferase reporter, transient transfection in COS-1 cells. Particulars: for Luciferase activation (fold activation) hPPARα: 10 μM, GAL4-hPPARα LBD chimera in COS-1 cells, negative control = 1.00; for PPAR selectivity profile (in words): conclusion from table 1, 10 μM. Background: Reporter assays use an easily measured gene product as a stand-in for the process of interest.

The target in assay [2] is T2, ligand binding domain of human PPARδ (Homo sapiens, UniProt Q03181).
T2 sequence (Q03181 211-439 limits assumed): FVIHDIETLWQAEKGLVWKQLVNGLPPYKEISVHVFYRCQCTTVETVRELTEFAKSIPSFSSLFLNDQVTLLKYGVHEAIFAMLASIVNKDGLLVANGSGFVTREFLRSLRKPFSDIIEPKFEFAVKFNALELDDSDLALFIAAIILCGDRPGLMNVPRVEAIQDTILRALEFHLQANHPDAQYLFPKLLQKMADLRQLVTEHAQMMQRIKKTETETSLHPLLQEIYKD
The experiment in a line: GAL4-hPPARδ LBD luciferase reporter, transient transfection in COS-1 cells. The following applies: 10 μM; GAL4-hPPARδ LBD chimera in COS-1 cells; negative control = 1.00.

Assay [3] concerns the target T3, ligand binding domain of human RXRα (Homo sapiens, UniProt P19793).
T3 sequence (P19793 227-458 limits assumed): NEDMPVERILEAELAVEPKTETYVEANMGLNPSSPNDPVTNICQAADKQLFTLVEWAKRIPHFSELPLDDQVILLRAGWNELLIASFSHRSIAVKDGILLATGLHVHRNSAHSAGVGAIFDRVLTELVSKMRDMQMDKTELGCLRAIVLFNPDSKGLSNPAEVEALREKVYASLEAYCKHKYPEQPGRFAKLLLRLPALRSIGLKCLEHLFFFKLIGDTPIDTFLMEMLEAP
The experiment in a line: GAL4-hRXRα LBD luciferase reporter, transient transfection in COS-1 cells. The following applies: for Luciferase activation (fold activation) hRXRα: 10 μM, GAL4-hRXRα LBD chimera in COS-1 cells, negative control = 1.00.

Assay [4] addresses T4, ligand binding domain of human PPARγ (Homo sapiens, UniProt P37231).
T4 sequence (P37231 238-503 limits assumed): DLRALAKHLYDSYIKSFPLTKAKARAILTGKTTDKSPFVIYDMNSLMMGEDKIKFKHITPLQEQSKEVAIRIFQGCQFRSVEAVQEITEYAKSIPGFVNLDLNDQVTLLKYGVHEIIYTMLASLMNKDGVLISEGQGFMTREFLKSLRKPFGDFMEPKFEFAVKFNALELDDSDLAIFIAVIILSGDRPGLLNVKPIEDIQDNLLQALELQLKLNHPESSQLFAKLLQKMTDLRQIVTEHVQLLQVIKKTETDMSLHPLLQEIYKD
The experiment in a line: GAL4-hPPARγ LBD luciferase reporter, transient transfection in COS-1 cells. Particulars: 10 μM; GAL4-hPPARγ LBD chimera in COS-1 cells; negative control = 1.00.

Assay [5] relates to NF-κB. The experiment in a line: Inhibition of NF-κB in human monocytic cell lines (U937-3xkB-LUC luciferase assay). The assay is classed as cell-based. The following applies: U937-3xkB-LUC cells, NF-κB induced by LPS or human TNF-α; FIG. 1. Here is the method: The novel compounds and DHA were solubilized to 12.5 μM in DMSO flushed with argon and stored at −20° C. Dexamethasone 10 μM in DMSO was used as positive control.
U937-3xkB-LUC cells, (Carlsen, J. Immun, 2002), were cultured in RPMI-1640 medium with L-glutamine ([…]), penicillin (50 U/ml), streptomycin ([…]), hygromycin (75 ug/ml), 10% Fetal Bovine Serum at 37° C. and 5% CO2. In the Cells were seeded in 24-well plates wherein 1% Fetal Bovin Serum was added to the medium. NF-κB activity was induced by lipopolysaccharide (LPS) (1 ug/ml) or human TNF-α (10 ng/ml). Cell viability was measured by trypan blue staining.
Luciferase activity was measured by imaging with a IVIS Imaging System from Xenogen Corp., USA. The Luminescence was detected after 1 min. and 5 min after addition of 0.2 mg d-luciferin per. ml cell medium. Number of photons in each well pr. second was calculated using Living Image Software (Xenogen Corp., USA).

Structures are written as SMILES.

In the case of `CC/C=C\C/C=C\C/C=C\C/C=C\C/C=C\CCC/C(C)=C/C(=O)O` [Compound 4, (2E,7Z,10Z,13Z,16Z,19Z)-3-methyl-docosa-2,7,10,13,16,19-hexaenoic acid], in assay [1], the “Luciferase activation (fold activation) hPPARα” value is 4.51 ± 0.52 fold activation and the “PPAR selectivity profile (in words)” value is listed as “selective PPARα modulators/activators”. The “Luciferase activation (fold activation) hPPARδ” value in assay [2] was found to be 1.28 ± 0.08 fold activation. For the same compound, the “Luciferase activation (fold activation) hRXRα” value in assay [3] is reported as 0.90 ± 0.08 fold activation. In addition, the “Luciferase activation (fold activation) hPPARγ” value in assay [4] came to 1.56 ± 0.12 fold activation.

For `CC/C=C\C/C=C\C/C=C\C/C=C\CC/C=C/C=C(\C)C(=O)O` [Compound 11, (2E,4E,8Z,11Z,14Z,17Z)-2-methyl-icosa-2,4,8,11,14,17-hexaenoic acid], in assay [1], the “Luciferase activation (fold activation) hPPARα” value worked out at 6.79 ± 0.21 fold activation and the “PPAR selectivity profile (in words)” value is “selective PPARα modulators/activators”. Moreover, the “Luciferase activation (fold activation) hPPARδ” value in assay [2] is 1.17 ± 00.20 fold activation. The “Luciferase activation (fold activation) hRXRα” value in assay [3] stood at 0.84 ± 0.09 fold activation. The “Luciferase activation (fold activation) hPPARγ” value in assay [4] came to 1.67 ± 0.11 fold activation.

With `CC/C=C\C/C=C\C/C=C\C/C=C\CC/C=C/C=C/C(=O)O` [Compound 13, (2E,4E,8Z,11Z,14Z,17Z)-icosa-2,4,8,11,14,17-hexaenoic acid], in assay [1], the “Luciferase activation (fold activation) hPPARα” value was 4.89 ± 0.31 fold activation and the “PPAR selectivity profile (in words)” value was “selective PPARα modulators/activators”. Further, the “Inhibition of the NF-κB pathway (in words)” value in assay [5] is recorded as “potent inhibitors of the NF-κB pathway”. Moreover, in assay [2], the “Luciferase activation (fold activation) hPPARδ” value came to 1.11 ± 0.16 fold activation. Besides, the “Luciferase activation (fold activation) hRXRα” value in assay [3] is 0.81 ± 0.05 fold activation. The “Luciferase activation (fold activation) hPPARγ” value in assay [4] stood at 1.63 ± 0.06 fold activation.

Regarding `CC/C=C\C/C=C\C/C=C\C/C=C\CC/C=C/C=C/C(C)=C/C(=O)O` [Compound 25, (2E,4E,6E,10Z,13Z,16Z,19Z)-3-methyl-docosa-2,4,6,10,13,16,19-heptaenoic acid], in assay [1], the “Luciferase activation (fold activation) hPPARα” value is on record as 8.27 ± 0.81 fold activation and the “PPAR selectivity profile (in words)” value was “PPAR pan modulators/activators”. Besides, the “Inhibition of the NF-κB pathway (in words)” value in assay [5] is listed as “potent inhibitors of the NF-κB pathway”. For the same compound, in assay [2], the “Luciferase activation (fold activation) hPPARδ” value was 1.47 ± 0.38 fold activation. Moreover, in assay [3], the “Luciferase activation (fold activation) hRXRα” value is on record as 1.57 ± 0.08 fold activation. In addition, in assay [3] (conclusion from table 1, 10 μM), the “RXRα ligand activity (in words)” value is “RXRα ligand”. For the same compound, in assay [4], the “Luciferase activation (fold activation) hPPARγ” value is recorded as 4.32 ± 0.29 fold activation.

Regarding `Cc1cccc(Nc2cc(Cl)nc(SCC(=O)O)n2)c1C` [Wy14643, reference compound], the “Luciferase activation (fold activation) hPPARα” value in assay [1] is recorded as 2.27 ± 0.04 fold activation.
